Measured values taken from US20230348462A1, “IMIDAZO[4,5-C]QUINOLINE COMPOUNDS AND THEIR USE AS ATM KINASE INHIBITORS” (Deutsches Krebsforschungszentrum, priority 2020, published 2023).

Tests used:
human ATM = human ATM (Homo sapiens (Human), UniProt Q13315); assay: Enzymatic ATM assay (RBC FRET enzyme assay); type: biochemical; settings: substrate p53, 5-point dilution starting at 10 μM
Procedure: The inhibitory activity on the isolated ATM kinase was determined by a commercial supplier (Reaction Biology Corp., PA, US) using an activity based FRET assay. Compounds were therefore first pre-incubated with human ATM before substrate (p53) and ATP were added to initiate the phosphorylation reaction. After a given time, the kinase reaction was stopped and the amount of phosphorylated substrate was quantified using standard FRET detection methods. […] Detailed assay conditions and parameters can be requested from the commercial supplier.

[1] = system: kras^G12D; mycOE; p53^−/− murine pancreatic cancer cells (KMP53); assay: KMP53 cell assay (XTT cell viability with Etoposide); type: cell-based; settings: Mus musculus, 4 h pre-treatment, then 300 nM Etoposide, 46 h
From the text: (§1) A selection of compounds was screened in a cellular assay system in two different cancer cell lines. Therefore, the cells were challenged with a generally non-cytotoxic concentration of Etoposid to induce DNA double strand breaks and the activation of the ATM pathway. The cells were further treated with different concentrations of the final compounds and viability of the cells was quantified using a standard XTT cell viability protocol. The principle of this assay lies in the fact that only alive and thus metabolically active cells are able to catalyze the reduction of XTT ((2,3-bis-(2-methoxy-4-nitro-5-sulfophenyl)-2H-tetrazolium-5-carboxanilide) by NADH from mitochondria, into formazan. The formazan product can be then detected using an absorbance-based microplate reader. The absorbance intensity measured in each well correlates to cell viability.
(§2) In brief, kras^G12D; mycOE; p53^−/− murine pancreatic cancer cells (KMP53) and Panc-1 human pancreatic ductal carcinoma cells were seeded in 96-well plates and left to attach overnight. The following day, cells were treated with serial dilutions of compound or DMSO in triplicates. The cells were first pre-treated for 4 hours with inhibitor and then 300 nM of Etoposide was added to each well. Cells were then grown under normal conditions (37° C., 95% air, 5% CO2) for 46 h. Following the incubation period, XTT solution was added to the cells containing 1 mg/ml XTT and 25 μM phenazine methosulfate (PMS) diluted in full culture medium. Cells were incubated in normal conditions for two more hours. For the determination of cell viability, absorbance at 450 nm was measured for each well. Absorbance values were then normalized to DMSO control and expressed as percentages of viability. Using software GraphPad Prism, the values were fitted in a nonlinear response curve and the IC50 values were calculated.

[2] = system: Panc-1 human pancreatic ductal carcinoma cells; assay: Panc1 cell assay (XTT cell viability with Etoposide); type: cell-based; settings: 4 h pre-treatment, then 300 nM Etoposide, 46 h
From the text: as §1, §2

Sequence of human ATM (Q13315 whole entry): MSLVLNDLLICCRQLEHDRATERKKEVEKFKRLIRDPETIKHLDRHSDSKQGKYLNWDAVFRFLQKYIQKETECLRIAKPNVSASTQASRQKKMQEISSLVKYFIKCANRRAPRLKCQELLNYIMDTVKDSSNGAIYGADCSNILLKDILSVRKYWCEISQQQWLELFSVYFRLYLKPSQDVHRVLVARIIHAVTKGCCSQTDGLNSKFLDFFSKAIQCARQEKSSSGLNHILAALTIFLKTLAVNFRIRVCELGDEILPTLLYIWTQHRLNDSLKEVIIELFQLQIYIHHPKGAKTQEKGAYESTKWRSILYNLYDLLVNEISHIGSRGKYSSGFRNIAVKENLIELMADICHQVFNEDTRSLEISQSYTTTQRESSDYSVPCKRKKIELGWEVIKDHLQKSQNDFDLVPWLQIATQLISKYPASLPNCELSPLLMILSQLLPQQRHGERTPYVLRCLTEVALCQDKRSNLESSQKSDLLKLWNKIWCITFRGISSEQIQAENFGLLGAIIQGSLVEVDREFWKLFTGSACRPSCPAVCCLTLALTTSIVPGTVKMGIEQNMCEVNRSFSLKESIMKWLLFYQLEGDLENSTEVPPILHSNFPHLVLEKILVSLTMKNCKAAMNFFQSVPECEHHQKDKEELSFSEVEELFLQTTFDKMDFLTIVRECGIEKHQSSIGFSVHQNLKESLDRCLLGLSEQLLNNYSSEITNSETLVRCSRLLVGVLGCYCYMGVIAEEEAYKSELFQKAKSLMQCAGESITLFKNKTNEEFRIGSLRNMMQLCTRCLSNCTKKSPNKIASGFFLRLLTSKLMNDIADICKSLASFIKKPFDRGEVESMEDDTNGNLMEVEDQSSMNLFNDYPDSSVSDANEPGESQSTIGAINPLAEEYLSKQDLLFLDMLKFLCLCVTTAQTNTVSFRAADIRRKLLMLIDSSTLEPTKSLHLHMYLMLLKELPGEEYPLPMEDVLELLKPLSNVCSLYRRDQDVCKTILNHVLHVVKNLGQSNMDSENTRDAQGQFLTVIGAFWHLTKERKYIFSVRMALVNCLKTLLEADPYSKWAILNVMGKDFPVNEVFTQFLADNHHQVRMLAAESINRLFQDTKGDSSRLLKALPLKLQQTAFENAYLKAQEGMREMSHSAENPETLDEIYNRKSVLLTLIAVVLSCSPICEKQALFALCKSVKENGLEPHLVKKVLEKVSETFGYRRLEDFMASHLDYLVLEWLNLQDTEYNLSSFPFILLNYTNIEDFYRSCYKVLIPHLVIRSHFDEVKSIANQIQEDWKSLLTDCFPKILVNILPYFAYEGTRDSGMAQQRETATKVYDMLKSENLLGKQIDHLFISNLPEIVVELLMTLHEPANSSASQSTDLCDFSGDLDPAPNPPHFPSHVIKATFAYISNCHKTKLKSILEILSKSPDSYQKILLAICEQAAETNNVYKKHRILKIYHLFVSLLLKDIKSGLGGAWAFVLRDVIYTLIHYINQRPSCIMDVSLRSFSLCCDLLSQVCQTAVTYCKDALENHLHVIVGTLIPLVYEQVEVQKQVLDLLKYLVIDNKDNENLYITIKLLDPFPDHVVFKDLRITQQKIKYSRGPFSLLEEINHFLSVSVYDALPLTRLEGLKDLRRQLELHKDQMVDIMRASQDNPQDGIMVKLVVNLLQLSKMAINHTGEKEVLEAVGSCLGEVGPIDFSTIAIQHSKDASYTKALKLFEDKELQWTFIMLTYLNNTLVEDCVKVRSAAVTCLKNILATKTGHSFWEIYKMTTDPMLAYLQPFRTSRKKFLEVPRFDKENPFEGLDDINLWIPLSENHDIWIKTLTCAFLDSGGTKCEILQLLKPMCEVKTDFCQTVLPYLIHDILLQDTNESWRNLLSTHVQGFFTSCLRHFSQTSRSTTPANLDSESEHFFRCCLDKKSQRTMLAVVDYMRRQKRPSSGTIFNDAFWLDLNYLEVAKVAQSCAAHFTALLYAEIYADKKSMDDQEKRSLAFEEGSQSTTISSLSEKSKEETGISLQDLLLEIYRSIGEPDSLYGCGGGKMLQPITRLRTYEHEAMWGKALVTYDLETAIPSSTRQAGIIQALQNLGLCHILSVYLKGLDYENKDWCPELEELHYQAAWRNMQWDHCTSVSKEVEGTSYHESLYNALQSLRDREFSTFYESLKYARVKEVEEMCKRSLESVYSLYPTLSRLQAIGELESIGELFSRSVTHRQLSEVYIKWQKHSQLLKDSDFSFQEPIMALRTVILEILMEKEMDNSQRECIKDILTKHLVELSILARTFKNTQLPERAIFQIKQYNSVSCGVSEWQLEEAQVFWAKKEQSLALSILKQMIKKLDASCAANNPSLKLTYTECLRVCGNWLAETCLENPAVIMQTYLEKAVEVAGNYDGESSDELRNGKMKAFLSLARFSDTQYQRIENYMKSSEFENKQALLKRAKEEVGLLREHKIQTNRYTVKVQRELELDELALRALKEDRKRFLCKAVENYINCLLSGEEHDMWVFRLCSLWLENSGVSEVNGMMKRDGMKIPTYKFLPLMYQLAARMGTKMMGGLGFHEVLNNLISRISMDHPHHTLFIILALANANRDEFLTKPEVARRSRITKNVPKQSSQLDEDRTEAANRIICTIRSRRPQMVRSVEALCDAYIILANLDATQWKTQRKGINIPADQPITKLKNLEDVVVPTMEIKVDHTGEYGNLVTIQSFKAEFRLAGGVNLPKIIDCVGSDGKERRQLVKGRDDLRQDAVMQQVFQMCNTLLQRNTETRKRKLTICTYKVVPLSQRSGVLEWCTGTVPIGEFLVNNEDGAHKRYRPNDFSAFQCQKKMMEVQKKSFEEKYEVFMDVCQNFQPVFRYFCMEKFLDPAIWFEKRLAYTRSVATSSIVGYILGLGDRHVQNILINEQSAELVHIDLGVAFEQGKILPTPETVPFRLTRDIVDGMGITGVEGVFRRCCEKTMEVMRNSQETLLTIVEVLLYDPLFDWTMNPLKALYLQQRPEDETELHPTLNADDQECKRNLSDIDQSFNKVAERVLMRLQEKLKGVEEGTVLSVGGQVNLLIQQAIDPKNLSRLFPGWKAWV

Row | SMILES | IC50 (human ATM) | IC50 [1] | IC50 [2]
1 | COCCn1c(=O)n(C)c2cnc3ccc(-c4ccc(NC(=O)NC(C)CN(C)C)cc4)cc3c21 (racemic) [Ex. 52, (RS)-1-(1-(Dimethylamino)propan-2-yl)-3-(4-(1-(2-methoxyethyl)-3-methyl-2-oxo-2,3-dihydro-1H-imidazo[4,5-c]quinolin-8-yl)phenyl)urea] | < 1 nM | 5470 nM | –
2 | Cc1nc2cnc3ccc(-c4ccc(OCCCN(C)C)nc4)cc3c2n1C1CCOCC1 [Ex. 2, N,N-Dimethyl-3-((5-(2-methyl-1-(tetrahydro-2H-pyran-4-yl)-1H-imidazo[4,5-c]quinolin-8-yl)pyridin-2-yl)oxy)propan-1-amine] | 2.9 nM | 8100 nM | –
3 | CN(C)CCCOc1ccc(-c2ccc3ncc4nc(-c5ccco5)n(C5CCOCC5)c4c3c2)cn1 [Ex. 3, 3-((5-(2-(Furan-2-yl)-1-(tetrahydro-2H-pyran-4-yl)-1H-imidazo[4,5-c]quinolin-8-yl)pyridin-2-yl)oxy)-N,N-dimethylpropan-1-amine] | < 1 nM | 7500 nM | –
4 | CN(C)CCCOc1ccc(-c2ccc3ncc4nc(-c5ccccc5)n(C5CCOCC5)c4c3c2)cn1 [Ex. 4, N,N-Dimethyl-3-((5-(2-phenyl-1-(tetrahydro-2H-pyran-4-yl)-1H-imidazo[4,5-c]quinolin-8-yl)pyridin-2-yl)oxy)propan-1-amine] | 3.7 nM | 2100 nM | –
5 | COCCn1c(-c2ccco2)nc2cnc3ccc(-c4ccc(OCCCN(C)C)nc4)cc3c21 [Ex. 6, 3-((5-(2-(Furan-2-yl)-1-(2-methoxyethyl)-1H-imidazo[4,5-c]quinolin-8-yl)pyridin-2-yl)oxy)-N,N-dimethylpropan-1-amine dimesylate] | < 1 nM | 3420 nM | –
6 | CN1CCN(C(=O)Nc2ccc(-c3ccc4ncc5c(c4c3)n(C3CCOCC3)c(=O)n5C)cn2)CC1 [Ex. 8, 4-Methyl-N-(5-(3-methyl-2-oxo-1-(tetrahydro-2H-pyran-4-yl)-2,3-dihydro-1H-imidazo[4,5-c]quinolin-8-yl)pyridin-2-yl)piperazine-1-carboxamide] | 2 nM | 410 nM | –
7 | COCCn1c(=O)n(C)c2cnc3ccc(-c4ccc(OCCCN(C)C)nc4)cc3c21 [Ex. 9, 8-(6-(3-(Dimethylamino)propoxy)43uinolin-3-yl)-1-(2-methoxyethyl)-3-methyl-1,3-dihydro-2H-imidazo[4,5-c]43uinoline-2-one] | < 1 nM | 1580 nM | –
8 | CN(C)CCNC(=O)Nc1ccc(-c2ccc3ncc4c(c3c2)n(C2CCOCC2)c(=O)n4C)cc1 [Ex. 10, 1-(2-(Dimethylamino)ethyl)-3-(4-(3-methyl-2-oxo-1-(tetrahydro-2H-pyran-4-yl)-2,3-dihydro-1H-imidazo[4,5-c]quinolin-8-yl)phenyl)urea] | < 1 nM | 1450 nM | –
9 | COCCn1c(=O)n(C)c2cnc3ccc(-c4ccc(NC(=O)NCCN(C)C)cc4)cc3c21 [Ex. 11, 1-(2-(Dimethylamino)ethyl)-3-(4-(1-(2-methoxyethyl)-3-methyl-2-oxo-2,3-dihydro-1H-imidazo[4,5-c]quinolin-8-yl)phenyl)urea] | < 1 nM | 4000 nM | –
10 | COCCn1c(=O)n(C)c2cnc3ccc(-c4ccc(NC(=O)N5CCC(NC(=O)OC(C)(C)C)CC5)cc4)cc3c21 [Ex. 13, tert-Butyl (1-((4-(1-(2-methoxyethyl)-3-methyl-2-oxo-2,3-dihydro-1H-imidazo[4,5-c]quinolin-8-yl)phenyl)carbamoyl)piperidin-4-yl)carbamate] | 2.3 nM | – | –
11 | COCCn1c(=O)n(C)c2cnc3ccc(-c4ccc(NC(=O)NC5CCN(C(=O)OC(C)(C)C)CC5)cc4)cc3c21 [Ex. 15, tert-Butyl 4-(3-(4-(1-(2-methoxyethyl)-3-methyl-2-oxo-2,3-dihydro-1H-imidazo[4,5-c]quinolin-8-yl)phenyl)ureido)piperidine-1-carboxylate] | < 1 nM | – | –
12 | COCCn1c(=O)n(C)c2cnc3ccc(-c4ccc(NC(=O)NC5CCN(C)C5)cc4)cc3c21 (stereo not shown) [Ex. 19, 1-(4-(1-(2-Methoxyethyl)-3-methyl-2-oxo-2,3-dihydro-1H-imidazo[4,5-c]quinolin-8-yl)phenyl)-3-(1-methylpyrrolidin-3-yl)urea] | < 1 nM | 9930 nM | 9 nM
13 | COCCn1c(=O)n(C)c2cnc3ccc(-c4ccc(NC(=O)NC5CN(C)C5)cc4)cc3c21 [Ex. 21, 1-(4-(1-(2-Methoxyethyl)-3-methyl-2-oxo-2,3-dihydro-1H-imidazo[4,5-c]quinolin-8-yl)phenyl)-3-(1-methylazetidin-3-yl)urea] | < 1 nM | – | –
14 | COCCn1c(=O)n(C)c2cnc3ccc(-c4ccc(NC(=O)N5CCC(N(C)C)C5)cc4)cc3c21 (stereo not shown) [Ex. 25, 3-(Dimethylamino)-N-(4-(1-(2-methoxyethyl)-3-methyl-2-oxo-2,3-dihydro-1H-imidazo[4,5-c]quinolin-8-yl)phenyl)pyrrolidine-1-carboxamide] | 7 nM | – | –
15 | COCCn1c(=O)n(C)c2cnc3ccc(-c4ccc(NC(=O)N5CC(N(C)C)C5)cc4)cc3c21 [Ex. 26, 3-(Dimethylamino)-N-(4-(1-(2-methoxyethyl)-3-methyl-2-oxo-2,3-dihydro-1H-imidazo[4,5-c]58uinoline-8-yl)phenyl)azetidine-1-carboxamide] | 4 nM | – | –
16 | COCCn1c(=O)n(C)c2cnc3ccc(-c4ccc(NC(=O)NCCN(C)C)c(F)c4F)cc3c21 [Ex. 46, 1-(2,3-Difluoro-4-(1-(2-methoxyethyl)-3-methyl-2-oxo-2,3-dihydro-1H-imidazo[4,5-c]quinolin-8-yl)phenyl)-3-(2-(dimethylamino)ethyl)urea] | 3 nM | 8940 nM | –

The next lines start with the values.

Row | IC50 (human ATM) | IC50 [1] | IC50 [2] | SMILES
17 | 2.3 nM | 6900 nM | – | CN(C)CCCOc1ccc(-c2ccc3ncc4ncn(C5CCOCC5)c4c3c2)cn1 [Ex. 1, N,N-Dimethyl-3-((5-(1-(tetrahydro-2H-pyran-4-yl)-1H-imidazo[4,5-c]quinolin-8-yl)pyridin-2-yl)oxy)propan-1-amine]
18 | 3.3 nM | 3400 nM | – | COCCn1cnc2cnc3ccc(-c4ccc(OCCCN(C)C)nc4)cc3c21 [Ex. 5, 3-((5-(1-(2-Methoxyethyl)-1H-imidazo[4,5-c]quinolin-8-yl)pyridin-2-yl)oxy)-N,N-dimethylpropan-1-amine]
19 | < 1 nM | – | 4 nM | COCCn1c(=O)n(C)c2cnc3ccc(-c4ccc(NC(=O)NC5CCCN(C)C5)cc4)cc3c21 (stereo not shown) [Ex. 17, 1-(4-(1-(2-Methoxyethyl)-3-methyl-2-oxo-2,3-dihydro-1H-imidazo[4,5-c]quinolin-8-yl)phenyl)-3-(1-methylpiperidin-3-yl)urea]
20 | 4 nM | – | – | COCCn1c(=O)n(C)c2cnc3ccc(-c4ccc(NC(=O)NC5CCN(C)CC5)cc4)cc3c21 [Ex. 18, 1-(4-(1-(2-Methoxyethyl)-3-methyl-2-oxo-2,3-dihydro-1H-imidazo[4,5-c]quinolin-8-yl)phenyl)-3-(1-methylpiperidin-4-yl)urea]
21 | – | 3800 nM | – | COCCn1c(=O)n(C)c2cnc3ccc(-c4ccc(NC(=O)N5CCN(C)CC5)cc4)cc3c21 [Ex. 20, N-(4-(1-(2-methoxyethyl)-3-methyl-2-oxo-2,3-dihydro-1H-imidazo[4,5-c]quinolin-8-yl)phenyl)-4-methylpiperazine-1-carboxamide]
22 | < 1 nM | 4790 nM | 1 nM | COCCn1c(=O)n(C)c2cnc3ccc(-c4ccc(NC(=O)NCCN(C)C)cc4F)cc3c21 [Ex. 27, 1-(2-(Dimethylamino)ethyl)-3-(3-fluoro-4-(1-(2-methoxyethyl)-3-methyl-2-oxo-2,3-dihydro-1H-imidazo[4,5-c]quinolin-8-yl)phenyl)urea]
23 | – | 7950 nM | – | COCCn1c(=O)n(C)c2cnc3ccc(-c4ccc(NC(=O)NCCN(C)C)c(C)c4F)cc3c21 [Ex. 48, 1-(2-(Dimethylamino)ethyl)-3-(3-fluoro-4-(1-(2-methoxyethyl)-3-methyl-2-oxo-2,3-dihydro-1H-imidazo[4,5-c]quinolin-8-yl)-2-methylphenyl)urea]
24 | < 1 nM | – | – | COCCn1c(=O)n(C)c2cnc3ccc(-c4ccc(NC(=O)NCCN5CCC5)cc4)cc3c21 [Ex. 49, 1-(2-(Azetidin-1-yl)ethyl)-3-(4-(1-(2-methoxyethyl)-3-methyl-2-oxo-2,3-dihydro-1H-imidazo[4,5-c]quinolin-8-yl)phenyl)urea]
25 | < 1 nM | 8040 nM | – | COCCn1c(=O)n(C)c2cnc3ccc(-c4ccc(NC(=O)NCCN5CC(F)C5)cc4)cc3c21 [Ex. 50, 1-(2-(3-Fluoroazetidin-1-yl)ethyl)-3-(4-(1-(2-methoxyethyl)-3-methyl-2-oxo-2,3-dihydro-1H-imidazo[4,5-c]quinolin-8-yl)phenyl)urea]
